IC50, Emax and GI50 data for 21 molecules are collected here from patent publication US11926619B2, “Certain pladienolide compounds and methods of use” (EISAI R&D MANAGEMENT CO., LTD., priority 2018, dated 2024).

Some results are limits rather than exact numbers.

For one experiment, the target named is T1, SF3b complexes (Homo sapiens, UniProt O75533+Q7RTV0).
T1 construct: endogenous in cells
In words: Scintillation proximity assay (SPA) with [3H]-labelled pladienolide probe. Format: binding. The following applies: wt SF3B1, read-out: SPA (wt SF3B1 cells) IC50. The method, then:
Batch immobilization of anti-SF3B1 antibody (MBL) to anti-mouse PVT SPA scintillation beads (PerkinElmer) was prepared as follows: for every 2.5 mg of nuclear extracts, 5 μg anti-SF3B1 antibody and 1.5 mg of beads were mixed in 150 μl PBS. The antibody-bead mixture was incubated for 30 min at RT and centrifuged at 18,000 g for 5 min. 150 μl PBS was used to resuspend every 1.5 mg antibody-bead mixture. The beads were suspended and added to the prepared nuclear extracts. The slurry was incubated for 2 h at 4° C. with gentle mixing. The beads were then collected by centrifuging at 18,000 g for 5 min, and washed twice with PBS+0.1% Triton X-100. After a final centrifugation step, every 1.5 mg of beads was suspended with 150 μl of PBS. The SF3b complexes were tested for [^3H]-labelled pladienolide probe binding ([^3H]-PB), synthesized as previously described (Kotake et al., 2007). 100 μL binding reactions were prepared with 50 μl bead slurry and by adding varying concentrations of PB or PB—OH, and after 30 min pre-incubation, 2.5 nM [^3H]—PB was added. The mixture was incubated for 30 min, and luminescence signals were read using a MicroBeta2 Plate Counter (PerkinElmer). Prism 6 (Graphpad) was used for non-linear regression curve fitting of the data.
(In general: In a scintillation proximity assay essentially only radioactivity close to the scintillant gives light.)

Experiment [1] deals with Panc 05.04 cells (pancreatic cancer cells; Q699H and K700E mutations in SF3B1). In words: Cell viability assay (CellTiter-Glo, 72 hr), Panc 05.04 cells. Format: cell-based. Conditions: Panc 05.04 cells (mutant SF3B1); for Emax: maximum achievable response in tested dose range, negative value = cellular lethality, read-out: Panc 05.04 (mt SF3B1 cells) Emax (%); for GI50: read-out: Panc 05.04 (mt SF3B1 cells), GI50. The procedure, abridged: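 Panc 05.04 cells treated 72 hr at 37 °C with 9 compound concentrations (0.1% DMSO), duplicate or triplicate. ATP read by CellTiter-Glo; growth inhibition/viability calculated against a time-zero plate and DMSO control growth. Emax is the maximal response over the tested range, negative values meaning lethality.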
For orientation: Cellular ATP, detected with luciferase, serves as a proxy for viable cell number.

The subject of experiment [2] is WiDr cells (colon cancer cells; wildtype SF3B1). The experiment can be described thus: Cell viability assay (CellTiter-Glo, 72 hr), WiDr cells. Format: cell-based. Conditions: Homo sapiens; WiDr cells (wildtype SF3B1); read-out: WiDr GI50. The procedure, abridged:
(§1)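 Cells at 2000/well were exposed to 9 compound concentrations (0.1% DMSO) in duplicate or triplicate for 72 hr at 37 °C. ATP was read by CellTiter-Glo against a time-zero plate and DMSO control growth. Percent growth/viability was plotted against concentration to give Emax; negative values indicate lethality.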

The subject of experiment [3] is WiDr-R cells (colon cancer cells; chemically-induced SF3B1 R1074H mutant). In words: Cell viability assay (CellTiter-Glo, 72 hr), resistant WiDr-R cells (counter-screen). The following applies: WiDr-R cells (SF3B1 R1074H mutation, resistant); read-out: WiDr-R GI50. In kind it is cell-based. The procedure, abridged:
as §1

Broadly, the IC50 is the concentration that inhibits the measured activity by half. A word on the GI50: it is the concentration giving 50% growth inhibition. As for `C/C(=C\C=C\C(C)c1cccnn1)[C@H]1OC(=O)C[C@H](O)CC[C@@](C)(O)[C@@H](OC(=O)N2CCN(C3CCCCCC3)CC2)/C=C/[C@@H]1C` (stereo partly drawn), at SF3b complexes, the IC50 was 3.38 nM. In addition, the Emax in experiment [1] was -94.7%. Also, the GI50 in experiment [1] is 22 nM; in experiment [2], 15.1 nM; in experiment [3] it was over 1000 nM.
For `C/C(=C\C=C\[C@@H](C)Cn1cc(C2CC2)nn1)[C@H]1OC(=O)C[C@H](O)CC[C@@](C)(O)[C@@H](OC(=O)N2CCN(C3CCCCCC3)CC2)/C=C/[C@@H]1C`, in that order: 14.1 nM, -94.5%, 38.6 nM, 51.8 nM and over 1000 nM.
In the same order, the values of `C/C(=C\C=C\C(C)c1cccnn1)[C@H]1OC(=O)C[C@H](O)CC[C@@](C)(O)[C@@H](OC(=O)N2CCN(C)CC2)/C=C/[C@@H]1C` (stereo partly drawn) are 9.2 nM, -90.9%, 59.2 nM, 18.7 nM and over 1000 nM.
For `C/C(=C\C=C\[C@@H](C)CCC(=O)N1CCCC1)[C@H]1OC(=O)C[C@H](O)CC[C@@](C)(O)[C@@H](OC(=O)N2CCN(C)CC2)/C=C/[C@@H]1C`, in that order: 4.36 nM, -87.3%, 27.3 nM, 26.4 nM and over 1000 nM.
On to `C/C(=C\C=C\[C@@H](C)COC(=O)N1CCC[C@H]1CO)[C@H]1OC(=O)CCCCC[C@@H](OC(=O)N2CCN(C)CC2)/C=C/[C@@H]1C`, for which the IC50 on SF3b complexes turned out to be 3.61 nM. Further, the Emax in experiment [1] was -62.8%. Moreover, the GI50 worked out at 2.9 nM in experiment [1], 2.52 nM in experiment [2] and 423 nM in experiment [3].
In the same order, the values of `C/C(=C\C=C\[C@@H](C)COC(=O)N1CCCC1)[C@H]1OC(=O)C[C@H](O)CC[C@@](C)(O)[C@@H](OC(=O)N2CCN(C3CCCCCC3)CC2)/C=C/[C@@H]1C` are 2.83 nM, -87.3%, 1.66 nM, 2.54 nM and over 1000 nM.
As for `C/C(=C\C=C\[C@@H](C)COC(=O)N1CCCC1)[C@H]1OC(=O)CCCCC[C@@H](OC(=O)N(C)C)/C=C/[C@@H]1C`, the IC50 on SF3b complexes came to 71.1 nM. The Emax in experiment [1] is -94.8%. The values for the GI50 in experiment [1], in experiment [2] and in experiment [3] were 156 nM, 135 nM and 6380 nM, respectively.
For `CC(=O)O[C@H]1/C=C/[C@H](C)[C@@H](/C(C)=C/C=C/[C@@H](C)CO)OC(=O)C[C@H](O)CC[C@@]1(C)O`, in that order: 326 nM, 47.5%, 6920 nM, 4040 nM and over 10000 nM.
For `C/C(=C\C=C\[C@@H](C)c1ccccn1)[C@H]1OC(=O)C[C@H](O)CC[C@@](C)(O)[C@@H](OC(=O)N2CCNCC2)/C=C/[C@@H]1C`, in that order: 26.9 nM, -76.5%, 39.5 nM, 16 nM and over 1000 nM.
In the case of `C/C(=C\C=C\[C@@H](C)CCC(=O)N1CCCC1)[C@H]1OC(=O)C[C@H](O)CC[C@@](C)(O)[C@@H](OC(=O)N2CCN(C3CCCCCC3)CC2)/C=C/[C@@H]1C`, at SF3b complexes, the IC50 stood at 5.11 nM. In experiment [1], the Emax was -86.9%. Moreover, the GI50 in experiment [1] was 3.25 nM; in experiment [2], 12.7 nM; in experiment [3] it was over 1000 nM.
With `C/C(=C\C=C\C(C)c1ccncc1)[C@H]1OC(=O)C[C@H](O)CC[C@@](C)(O)[C@@H](OC(=O)N2CCN(C3CCCCCC3)CC2)/C=C/[C@@H]1C` (stereo partly drawn), the 50% inhibitory concentration (IC50) on SF3b complexes was found to be 2.74 nM. The Emax in experiment [1] is -95.1%. In addition, the GI50 in experiment [1] is 6.63 nM; in experiment [2], 14 nM; in experiment [3], over 1000 nM.
As to `C/C(=C\C=C\[C@H](C)c1ccccn1)[C@H]1OC(=O)C[C@H](O)CC[C@@](C)(O)[C@@H](OC(=O)N2CCN(C3CCCCCC3)CC2)/C=C/[C@@H]1C`, the IC50 at SF3b complexes amounted to 5.95 nM. The Emax in experiment [1] was -90%. The results for the concentration for 50% growth inhibition (GI50) in experiment [1], in experiment [2] and in experiment [3] were 71.8 nM, 65 nM and over 1000 nM, respectively.
For `CC(=O)O[C@H]1/C=C/[C@H](C)[C@@H](/C(C)=C/C=C/[C@@H](C)c2ccccn2)OC(=O)C[C@H](O)CC[C@@]1(C)O`, in that order: 45.1 nM, -16.1%, 538 nM, 231 nM and over 10000 nM.
For `C/C(=C\C=C\[C@@H](C)c1ccccn1)[C@H]1OC(=O)C[C@H](O)CC[C@@](C)(O)[C@@H](OC(=O)N2CCN(C(C)(C)C)CC2)/C=C/[C@@H]1C`, in that order: 13.1 nM, -78.1%, 66 nM, 76 nM and over 1000 nM.
For `C/C(=C\C=C\[C@@H](C)c1ccccn1)[C@H]1OC(=O)C[C@H](O)CC[C@@](C)(O)[C@@H](OC(=O)N2CCN(C3CCCCC3)CC2)/C=C/[C@@H]1C`, in that order: 3.32 nM, -94.3%, 21.4 nM, 21.2 nM and over 1000 nM.
As to `C/C(=C\C=C\[C@@H](C)CNC(=O)N1CCCC1)[C@H]1OC(=O)C[C@H](O)CC[C@@](C)(O)[C@@H](OC(=O)N2CCN(C)CC2)/C=C/[C@@H]1C`, at SF3b complexes, the IC50 turned out to be 7.62 nM. Besides, the Emax in experiment [1] was -90.4%. Further, the GI50 was 54.1 nM in experiment [1], 76.6 nM in experiment [2] and over 1000 nM in experiment [3].
In the same order, the values of `CC(=O)O[C@H]1/C=C/[C@H](C)[C@@H](/C(C)=C/C=C/[C@@H](C)COC(=O)N2CCC[C@H]2C)OC(=O)C[C@H](O)CC[C@@]1(C)O` are 2.72 nM, -79.3%, 2.11 nM, 0.983 nM and over 1000 nM.
For `CC(=O)O[C@H]1/C=C/[C@H](C)[C@@H](/C(C)=C/C=C/[C@@H](C)COC(=O)N2CCC[C@@H]2CO)OC(=O)C[C@H](O)CC[C@@]1(C)O`, in that order: 80.4 nM, -83.4%, 35.1 nM, 24.7 nM and over 10000 nM.
For `C/C(=C\C=C\[C@@H](C)COC(=O)N1CCC[C@H]1CO)[C@H]1OC(=O)CCCC[C@@](C)(O)[C@@H](OC(=O)N2CCN(C)CC2)/C=C/[C@@H]1C`, in that order: 2.54 nM, -72.3%, 2.07 nM, 1.74 nM and over 1000 nM.
`C/C(=C\C=C\[C@@H](C)COC(=O)N1CC[C@@H](O)C1)[C@H]1OC(=O)C[C@H](O)CC[C@H](C)[C@@H](OC(=O)N2CCN(C)CC2)/C=C/[C@@H]1C`: the IC50 on SF3b complexes was 5.43 nM. For the same molecule, in experiment [1], the Emax is -83.3%. For the same molecule, the GI50 in experiment [1] was 3.37 nM; in experiment [2], 4.86 nM; in experiment [3], over 1000 nM.
In the same order, the values of `CC(=O)O[C@H]1/C=C/[C@H](C)[C@@H](/C(C)=C/C=C/Cc2ccccn2)OC(=O)C[C@H](O)CC[C@@]1(C)O` are over 1200 nM, 87.2%, over 10000 nM, 559 nM and over 10000 nM.
